One block for each compound: values may come before it.
What was measured:
[1] = target: T1, CHK1 (h) (Homo sapiens, UniProt O14757); assay: Chk-1 kinase inhibiting activity (Upstate radiometric assay); assay type: biochemical
T1 construct: purchased Upstate Ltd (assay run at Upstate)
T1 sequence (O14757 1-476): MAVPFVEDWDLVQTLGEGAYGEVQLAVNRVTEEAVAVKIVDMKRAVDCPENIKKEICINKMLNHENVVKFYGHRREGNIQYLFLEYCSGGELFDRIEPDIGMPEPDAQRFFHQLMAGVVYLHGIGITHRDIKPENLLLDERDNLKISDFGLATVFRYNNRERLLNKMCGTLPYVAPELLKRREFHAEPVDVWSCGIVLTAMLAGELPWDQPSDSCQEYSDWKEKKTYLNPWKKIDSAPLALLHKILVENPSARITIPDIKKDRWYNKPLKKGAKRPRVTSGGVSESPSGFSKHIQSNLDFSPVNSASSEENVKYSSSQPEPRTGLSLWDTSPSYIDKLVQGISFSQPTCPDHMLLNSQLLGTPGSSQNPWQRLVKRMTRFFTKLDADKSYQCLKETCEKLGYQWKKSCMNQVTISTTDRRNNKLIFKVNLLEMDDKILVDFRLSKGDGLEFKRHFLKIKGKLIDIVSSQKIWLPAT
Description: The N-oxide compounds of the invention and their tertiary amine precursors were tested for activity against the Chk-1 kinase.
The Chk-1 assay was conducted at Upstate Ltd, Gemini Crescent, Dundee Technology Park, Dundee, DD2 1 SW, UK in accordance with the protocol set out below. In a final reaction volume of 25 μl, CHK1 (h) (5-10 mU) is incubated with 8 mM MOPS pH 7.0, 0.2 mM EDTA, 200 μM […], 10 mM MgAcetate and γ-33P-ATP] (specific activity approx. 500 cpm/pmol, concentration as required). The reaction is initiated by the addition of the MgATP mix. After incubation for 40 minutes at room temperature, the reaction is stopped by the addition of 5 μl of a 3% phosphoric acid solution. 10 μl of the reaction mixture is then spotted onto a P30 filtermat and washed three times for 5 minutes in 75 mM phosphoric acid and once in methanol prior to drying and scintillation counting.

[2] = target: T2, hERG potassium channel (Homo sapiens, UniProt Q12809); assay: Functional hERG assay (patch clamp, HEK-293 cells); assay type: cell-based; conditions: 5-point dose response, triplicate
T2 construct: expressed in transfected cells; host or cells: HEK-293
Description: The N-oxide compounds of the invention and their tertiary amine precursors were each tested for hERG inhibiting activity using the method of Zhou Z, Gong Q, Ye B, Fan Z, Makielski J C, Robertson G A, January C T. Biophys J. 1998 January; 74(1):230-41.
Test compounds were tested in triplicate in a 5-point dose response curve on HEK-293 cells stably expressing the hERG potassium channel. Potassium current was measured using the patch clamp technique on a Molecular Devices Patch Express 7000. hERG channels were activated by 2 second pulses to +20 mV from a holding potential of −80 mV, and peak tail currents were recorded upon repolarization to −50 mV. This voltage-clamp pulse protocol was performed continuously during the experiment (vehicle control, test compound, washout, and positive control additions). An interpulse interval of 15 seconds allowed recovery from any residual inactivation. Test compounds were incubated with cells between 3-8 minutes until the current reached a steady state level, defined by a Standard Deviation of 0.01. After the final test compound concentration was tested, test compound was washed out with continuous perfusion of extracellular solution for 3 minutes, followed by application of positive control (10 μM Cisparide).
Test compounds were diluted in 100% DMSO at 1000× the highest concentration to be tested, vortexed, and sonicated. Visual inspection determined that compounds were completely solubilized. Test compounds were then diluted into glass vials in 100% DMSO for all test concentrations at 1000× the final concentration to be tested and vortexed. Test compounds were then diluted 1:1000 into extracellular solution and vortexed to achieve final concentration for testing. Final DMSO concentration was 0.1% for all concentrations of test compounds, Vehicle (negative) control, and Cisapride (positive) control in extracellular solution. The compositions of the solutions used were as follows:
Intracellular Soln (mM): KCl 130, EDTA 5, MgCl2 5, HEPES10, Na-ATP 5, pH=7.2 Extracellular Soln (mM): NaCl 137, KCl 4, CaCl2 1.8, MgCl2 1, Dextrose 11, HEPES 10, pH=7.4

[3] = target: T3, human potassium channel hERG (Homo sapiens, UniProt Q12809); assay: hERG binding activity ([3H] astemizole displacement, HEK-293 membranes); conditions: 1.5 nM [3H] astemizole; for IC50: 60 minutes at 25° C.; for HERG Binding % @ 100 uM (extent of binding): @ 100 uM test compound
T3 construct: expressed in transfected cells; host or cells: HEK-293
Description: The abilities of the N-oxide compounds of the invention and their tertiary amine precursors were tested using the assay described below.
Human recombinant HEK-293 cells stably transfected with a plasmid encoding the human potassium channel hERG were used to prepare membranes in modified HEPES pH 7.4 buffer using standard techniques. A 10 μg aliquot of membrane was incubated with 1.5 nM [^3H] astemizole in the presence of varying concentrations of test compound for 60 minutes at 25° C. The membranes were then filtered and washed three times and the filters were counted to determine the [^3H] astemizole specifically bound. From the counts, the extent of binding of the test compound and, in some cases, the IC50 values of the test compounds, were determined.

[4] = target: T4, Flt3(h) (Homo sapiens, UniProt P36888); assay: Kinase selectivity screen (Upstate); assay type: biochemical; conditions: 10 μM compound; ATP 200 μM; N = 2
T4 construct: purchased Upstate
Description: (§1) The compound of Example 1F was tested (Upstate) against a number of other kinases and the results are set out in Table 5 below.

[5] = target: T5, PDGFRβ(h) (Homo sapiens, UniProt P09619); assay: Kinase selectivity screen (Upstate); assay type: biochemical; conditions: 10 μM compound; ATP 200 μM; N = 2
T5 construct: purchased Upstate
Description: as §1

[6] = target: T6, Tie2(h) (Homo sapiens, UniProt Q02763); assay: Kinase selectivity screen (Upstate); assay type: biochemical; conditions: 10 μM compound; ATP 200 μM; N = 2
T6 construct: purchased Upstate
Description: as §1

[7] = target: T7, MEK1(h) (Homo sapiens, UniProt Q02750); assay: Kinase selectivity screen (Upstate); assay type: biochemical; conditions: 10 μM compound; ATP 10 μM; N = 2
T7 construct: purchased Upstate
Description: as §1

[8] = target: T8, Yes(h) (Homo sapiens, UniProt P07947); assay: Kinase selectivity screen (Upstate); assay type: biochemical; conditions: 10 μM compound; ATP 45 μM; N = 2
T8 construct: purchased Upstate
Description: as §1

[9] = target: T9, EGFR(h) (Homo sapiens, UniProt P00533); assay: Kinase selectivity screen (Upstate); assay type: biochemical; conditions: 10 μM compound; ATP 10 μM; N = 2
T9 construct: purchased Upstate
Description: as §1

[10] = target: T10, KDR(h) (Homo sapiens, UniProt P35968); assay: Kinase selectivity screen (Upstate); assay type: biochemical; conditions: 10 μM compound; ATP 90 μM; N = 2
T10 construct: purchased Upstate
Description: as §1

[11] = target: T11, Aurora-A(h) (Homo sapiens, UniProt O14965); assay: Kinase selectivity screen (Upstate); assay type: biochemical; conditions: 10 μM compound; ATP 15 μM; N = 2
T11 construct: purchased Upstate
Description: as §1

[12] = target: T12, cKit(h) (Homo sapiens, UniProt P10721); assay: Kinase selectivity screen (Upstate); assay type: biochemical; conditions: 10 μM compound; ATP 200 μM; N = 2
T12 construct: purchased Upstate
Description: as §1

[13] = target: T13, CDK2/cyclinE(h) (Homo sapiens, UniProt P24941); assay: Kinase selectivity screen (Upstate); assay type: biochemical; conditions: 10 μM compound; ATP 120 μM; N = 2
T13 construct: purchased Upstate
Description: as §1

[14] = target: T14, IGF-1R(h) (Homo sapiens, UniProt P08069); assay: Kinase selectivity screen (Upstate); assay type: biochemical; conditions: 10 μM compound; ATP 200 μM; N = 2
T14 construct: purchased Upstate
Description: as §1

[15] = target: T15, PKA(h) (Homo sapiens, UniProt P17612); assay: Kinase selectivity screen (Upstate); assay type: biochemical; conditions: 10 μM compound; ATP 10 μM; N = 2
T15 construct: purchased Upstate
Description: as §1

[16] = target: T16, Fms(h) (Homo sapiens, UniProt P07333); assay: Kinase selectivity screen (Upstate); assay type: biochemical; conditions: 10 μM compound; ATP 200 μM; N = 2
T16 construct: purchased Upstate
Description: as §1

[17] = target: T17, PKCθ(h) (Homo sapiens, UniProt Q04759); assay: Kinase selectivity screen (Upstate); assay type: biochemical; conditions: 10 μM compound; ATP 15 μM; N = 2
T17 construct: purchased Upstate
Description: as §1

[18] = target: T18, cSRC(h) (Homo sapiens, UniProt P12931); assay: Kinase selectivity screen (Upstate); assay type: biochemical; conditions: 10 μM compound; ATP 200 μM; N = 2
T18 construct: purchased Upstate
Description: as §1

[19] = target: T19, JNK1α1(h) (Homo sapiens, UniProt P45983); assay: Kinase selectivity screen (Upstate); assay type: biochemical; conditions: 10 μM compound; ATP 45 μM; N = 2
T19 construct: purchased Upstate
Description: as §1

[20] = target: T20, ZAP-70(h) (Homo sapiens, UniProt P43403); assay: Kinase selectivity screen (Upstate); assay type: biochemical; conditions: 10 μM compound; ATP 15 μM; N = 2
T20 construct: purchased Upstate
Description: as §1

[21] = target: T21, Pim-1(h) (Homo sapiens, UniProt P11309); assay: Kinase selectivity screen (Upstate); assay type: biochemical; conditions: 10 μM compound; ATP 90 μM; N = 2
T21 construct: purchased Upstate
Description: as §1

[22] = target: T22, MAPK2(h) (Homo sapiens, UniProt P28482); assay: Kinase selectivity screen (Upstate); assay type: biochemical; conditions: 10 μM compound; ATP 155 μM; N = 2
T22 construct: purchased Upstate
Description: as §1

[23] = target: T23, CHK2(h) (Homo sapiens, UniProt O96017); assay: Kinase selectivity screen (Upstate); assay type: biochemical; conditions: 10 μM compound; ATP 70 μM; N = 2
T23 construct: purchased Upstate
Description: as §1

[24] = target: T24, FGFR1(h) (Homo sapiens, UniProt P11362); assay: Kinase selectivity screen (Upstate); assay type: biochemical; conditions: 10 μM compound; ATP 200 μM; N = 2
T24 construct: purchased Upstate
Description: as §1

[25] = target: T25, NEK2(h) (Homo sapiens, UniProt P51955); assay: Kinase selectivity screen (Upstate); assay type: biochemical; conditions: 10 μM compound; ATP 120 μM; N = 2
T25 construct: purchased Upstate
Description: as §1

[26] = test system: other kinases; assay: Kinase selectivity screen (Upstate), panel as a whole; assay type: biochemical, human; conditions: 10 μM compound; summary of Table 5
Description: as §1

T2 sequence (Q12809 whole entry): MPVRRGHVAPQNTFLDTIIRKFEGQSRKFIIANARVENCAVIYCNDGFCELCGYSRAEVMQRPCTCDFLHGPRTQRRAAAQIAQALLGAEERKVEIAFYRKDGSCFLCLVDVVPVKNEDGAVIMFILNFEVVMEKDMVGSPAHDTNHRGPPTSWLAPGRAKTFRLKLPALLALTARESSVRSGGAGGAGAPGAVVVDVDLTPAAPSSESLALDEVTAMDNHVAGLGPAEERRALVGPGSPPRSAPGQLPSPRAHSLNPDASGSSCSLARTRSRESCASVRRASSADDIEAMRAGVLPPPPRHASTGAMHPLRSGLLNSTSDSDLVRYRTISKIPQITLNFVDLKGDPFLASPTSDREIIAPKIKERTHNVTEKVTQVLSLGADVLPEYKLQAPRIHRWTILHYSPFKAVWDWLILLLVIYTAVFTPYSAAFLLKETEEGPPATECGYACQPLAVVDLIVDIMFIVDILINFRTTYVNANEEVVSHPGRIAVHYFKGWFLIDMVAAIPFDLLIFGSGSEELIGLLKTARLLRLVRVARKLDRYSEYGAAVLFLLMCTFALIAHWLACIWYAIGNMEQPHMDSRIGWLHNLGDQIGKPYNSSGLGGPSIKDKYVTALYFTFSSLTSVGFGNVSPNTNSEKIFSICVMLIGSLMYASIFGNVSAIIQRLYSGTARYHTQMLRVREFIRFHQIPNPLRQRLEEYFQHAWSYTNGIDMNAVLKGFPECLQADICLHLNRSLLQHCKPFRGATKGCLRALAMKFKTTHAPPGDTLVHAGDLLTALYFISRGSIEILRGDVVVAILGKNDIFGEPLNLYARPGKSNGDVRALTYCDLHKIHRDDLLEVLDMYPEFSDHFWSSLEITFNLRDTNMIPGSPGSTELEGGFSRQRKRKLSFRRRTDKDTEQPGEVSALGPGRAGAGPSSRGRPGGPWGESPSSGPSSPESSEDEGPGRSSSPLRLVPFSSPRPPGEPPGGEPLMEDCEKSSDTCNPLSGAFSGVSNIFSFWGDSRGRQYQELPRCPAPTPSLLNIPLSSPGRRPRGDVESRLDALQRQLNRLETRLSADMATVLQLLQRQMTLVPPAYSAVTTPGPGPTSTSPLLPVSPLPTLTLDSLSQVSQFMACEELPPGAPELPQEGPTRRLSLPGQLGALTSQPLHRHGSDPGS
T3 sequence (Q12809 whole entry): as above
T5 sequence (P09619 33-1106): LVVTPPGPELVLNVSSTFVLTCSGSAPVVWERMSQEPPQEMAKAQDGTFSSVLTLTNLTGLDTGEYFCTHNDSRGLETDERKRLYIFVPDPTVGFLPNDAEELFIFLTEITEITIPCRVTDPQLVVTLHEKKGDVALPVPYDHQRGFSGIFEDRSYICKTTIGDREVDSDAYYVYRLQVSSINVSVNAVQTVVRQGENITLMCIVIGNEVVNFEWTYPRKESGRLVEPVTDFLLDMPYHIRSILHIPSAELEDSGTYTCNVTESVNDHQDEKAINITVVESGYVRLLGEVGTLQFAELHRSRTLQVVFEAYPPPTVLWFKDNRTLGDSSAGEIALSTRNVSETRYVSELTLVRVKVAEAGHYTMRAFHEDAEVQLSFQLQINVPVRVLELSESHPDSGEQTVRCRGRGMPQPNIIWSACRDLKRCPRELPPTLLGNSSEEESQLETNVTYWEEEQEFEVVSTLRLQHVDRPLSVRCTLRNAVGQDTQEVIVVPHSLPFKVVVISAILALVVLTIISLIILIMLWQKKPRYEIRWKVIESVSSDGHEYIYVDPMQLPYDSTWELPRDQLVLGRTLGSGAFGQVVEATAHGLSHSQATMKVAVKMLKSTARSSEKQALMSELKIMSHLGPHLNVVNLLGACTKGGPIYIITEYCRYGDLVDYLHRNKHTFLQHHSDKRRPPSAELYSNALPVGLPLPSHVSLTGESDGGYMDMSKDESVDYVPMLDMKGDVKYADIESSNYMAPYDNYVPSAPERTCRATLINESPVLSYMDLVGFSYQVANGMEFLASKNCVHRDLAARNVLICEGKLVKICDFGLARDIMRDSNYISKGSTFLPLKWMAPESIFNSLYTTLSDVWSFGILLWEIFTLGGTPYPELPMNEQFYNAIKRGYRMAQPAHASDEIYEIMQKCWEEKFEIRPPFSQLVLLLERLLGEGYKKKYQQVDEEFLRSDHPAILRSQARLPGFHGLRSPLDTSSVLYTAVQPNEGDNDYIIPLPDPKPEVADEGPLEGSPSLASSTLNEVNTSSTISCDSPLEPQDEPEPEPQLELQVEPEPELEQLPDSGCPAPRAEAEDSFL
T23 sequence (O96017 whole entry): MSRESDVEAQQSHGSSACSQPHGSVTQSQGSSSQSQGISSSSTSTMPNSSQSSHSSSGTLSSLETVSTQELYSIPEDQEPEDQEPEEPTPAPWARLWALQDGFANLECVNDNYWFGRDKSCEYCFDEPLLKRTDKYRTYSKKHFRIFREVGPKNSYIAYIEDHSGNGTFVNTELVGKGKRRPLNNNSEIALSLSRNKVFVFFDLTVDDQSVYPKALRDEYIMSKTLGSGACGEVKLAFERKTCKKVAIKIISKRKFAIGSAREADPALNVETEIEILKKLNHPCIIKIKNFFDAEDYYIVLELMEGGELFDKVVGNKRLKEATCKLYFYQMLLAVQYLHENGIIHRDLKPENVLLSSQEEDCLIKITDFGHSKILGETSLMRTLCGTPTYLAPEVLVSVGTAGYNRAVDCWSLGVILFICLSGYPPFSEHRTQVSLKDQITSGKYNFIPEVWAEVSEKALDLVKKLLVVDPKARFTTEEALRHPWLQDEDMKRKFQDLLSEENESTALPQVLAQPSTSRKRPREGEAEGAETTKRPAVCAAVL
T18 sequence (P12931 whole entry): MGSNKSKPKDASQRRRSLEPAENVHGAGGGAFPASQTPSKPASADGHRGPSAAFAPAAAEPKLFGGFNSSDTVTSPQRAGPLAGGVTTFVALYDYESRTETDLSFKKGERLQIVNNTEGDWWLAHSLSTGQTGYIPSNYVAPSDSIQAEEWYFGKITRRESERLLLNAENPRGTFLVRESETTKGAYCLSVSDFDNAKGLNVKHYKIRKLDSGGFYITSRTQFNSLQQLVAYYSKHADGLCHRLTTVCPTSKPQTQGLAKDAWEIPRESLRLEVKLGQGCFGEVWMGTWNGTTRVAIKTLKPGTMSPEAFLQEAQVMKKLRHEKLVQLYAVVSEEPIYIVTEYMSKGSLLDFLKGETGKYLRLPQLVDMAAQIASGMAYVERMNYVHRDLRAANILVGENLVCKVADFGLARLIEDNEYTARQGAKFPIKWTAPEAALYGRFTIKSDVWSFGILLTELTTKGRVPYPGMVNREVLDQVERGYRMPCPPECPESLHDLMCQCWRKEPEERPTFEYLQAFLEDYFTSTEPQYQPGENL
T11 sequence (O14965 whole entry): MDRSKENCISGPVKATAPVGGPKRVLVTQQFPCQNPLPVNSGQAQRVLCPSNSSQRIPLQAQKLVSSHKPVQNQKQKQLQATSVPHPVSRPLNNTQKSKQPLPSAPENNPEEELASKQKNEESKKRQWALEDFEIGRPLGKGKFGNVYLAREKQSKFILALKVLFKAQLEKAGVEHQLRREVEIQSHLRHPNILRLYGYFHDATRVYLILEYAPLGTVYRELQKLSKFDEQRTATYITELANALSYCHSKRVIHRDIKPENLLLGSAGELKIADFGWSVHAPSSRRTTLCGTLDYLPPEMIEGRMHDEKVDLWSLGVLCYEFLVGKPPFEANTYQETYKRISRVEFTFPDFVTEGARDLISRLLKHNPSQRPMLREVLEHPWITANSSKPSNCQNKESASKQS

IC50 [1]: 41 nM
SMILES: CN(C)CCCOc1ccc(Cl)cc1NC(=O)Nc1cnccn1 [Example 1C, 1-[5-Chloro-2-(3-dimethyloxyamino-propoxy)-phenyl]-3-pyrazin-2-yl-urea]
IC50 [2]: 108 nM
IC50 [3]: 5030 nM

inhibition at 10 µM [4]: 73%
inhibition at 10 µM [5]: 1%
inhibition at 10 µM [6]: 11%
inhibition at 10 µM [7]: 0%
inhibition at 10 µM [8]: 0%
inhibition at 10 µM [9]: 0%
inhibition at 10 µM [10]: 38%
inhibition at 10 µM [11]: 14%
inhibition at 10 µM [12]: 0%
inhibition at 10 µM [13]: 0%
inhibition at 10 µM [14]: 36%
inhibition at 10 µM [15]: 0%
inhibition at 10 µM [16]: 12%
inhibition at 10 µM [17]: 37%
inhibition at 10 µM [18]: 11%
inhibition at 10 µM [19]: 0%
inhibition at 10 µM [20]: 5%
inhibition at 10 µM [21]: 0%
inhibition at 10 µM [22]: 0%
inhibition at 10 µM [23]: 71%
inhibition at 10 µM [24]: 92%
inhibition at 10 µM [25]: 0%
IC50 [1]: 71 nM
activity against most other kinases apart from CHK2, FGFR1 and Flt3 [26]: largely inactive or only poorly active
SMILES: C[N+](C)([O-])CCCOc1ccc(Cl)cc1NC(=O)Nc1cnccn1 [Example 1F]
IC50 [2]: 26700 nM
HERG Binding % @ 100 uM (extent of binding) [3]: 35% @ 100 uM

IC50 [1]: 51 nM
SMILES: Cc1cnc(NC(=O)Nc2cc(Cl)ccc2OCCCN(C)C)cn1 [Example 2B, 1-[5-Chloro-2-(3-dimethylamino-propoxy)-phenyl]-3-(5-methyl-pyrazin-2-yl)-urea]
IC50 [2]: 610 nM
IC50 [3]: 2980 nM

IC50 [1]: 128 nM
SMILES: Cc1cnc(NC(=O)Nc2cc(Cl)ccc2OCCC[N+](C)(C)[O-])cn1 [Example 2C, 1-[5-Chloro-2-(3-dimethyloxyamino-propoxy)-phenyl]-3-(5-methyl-pyrazin-2-yl)-urea]
IC50 [2]: > 30000 nM
HERG Binding % @ 100 uM (extent of binding) [3]: 3% @ 100 uM
